Experimental data: patent US8293529B2, “Method for inducing differentiation of pluripotent stem cells into cardiomyocytes” (Daiichi Sankyo Company, Limited, priority 2006, dated 2012)

Assays:
mouse ES cells [1] = conditions: added for 3 days after initiation of differentiation induction (Naito et al.); cited from earlier work
cmES cells [2] = test: Immunohistochemical staining of marker proteins in EBs from cmES cells; format: cell-based, common marmoset; conditions: EBs at 16 days after induction of differentiation
Experimental: Subsequently, immunohistochemical staining was performed in the same manner as used in Example 2 to confirm that beating cells developed in EBs from the Wnt-treated groups were cardiomyocytes producing specific marker proteins. From EBs in the Wnt-treated groups (Wnt-3a, WNT-1) at 16 days after induction of differentiation, frozen sections were prepared and reacted with anti-sarcomeric myosin antibody, anti-GATA-4 antibody or anti-Nkx-2.5 antibody as a primary antibody. After color reaction, these sections were observed under an optical microscope.

mouse ES cells [3] = test: Appearance rate of EBs exhibiting spontaneous beating; format: cell-based
Experimental: Culture for inducing differentiation of ES cells into cardiomyocytes or neurons was accomplished in a routine manner as follows. ES cells were suspended in LIF-free medium, and the resulting suspension was seeded at 500 cells/50 μL per well of a commercially available 96-well culture plate for spheroid formation (Sumilon Celltight Spheroid; Sumitomo Bakelite Co., Ltd., Japan).
In the early stage of differentiation in ES cells, transient elevations in expression of various Wnt genes were observed prior to the appearance of cardiomyocytes. Then, ES cells at this stage were treated with recombinant Wnt proteins to study the myocardial differentiation-inducing effect of the proteins. Induction of ES cell differentiation was accomplished in the same manner as used in Example 1, except that some of the experimental groups were cultured in medium containing a commercially available recombinant WNT-1 (Peprotech), Wnt-3a (R&D systems) or Wnt-5a (R&D systems) protein. Treatment of ES cells in medium supplemented with a recombinant protein of canonical Wnt such as WNT-1 is hereinafter referred to as “Wnt treatment.”
The above canonical Wnt protein treatment is known to inhibit the action of GSK3β within cells and thereby promote stabilization of β-catenin and its transcription activation ability. Then, further studies were performed to confirm that treatment with various drugs capable of promoting stabilization of β-catenin and its transcription activation ability produced a myocardial differentiation-inducing effect on ES cells, as in the case of Wnt treatment. As drugs capable of promoting stabilization of β-catenin and its transcription activation ability, the following five commercially available compounds were used: GSK3β inhibitors BIO (Calbiochem), GSK3β inhibitor VII (Calbiochem), cell-permeable GSK3β peptide inhibitor (L803-mts; Calbiochem) and SB216763 (Biomol), as well as a Wnt agonist (Calbiochem) that promotes the transcription activation ability of β-catenin without GSK3β inhibition. ES cells were induced to differentiate in the same manner as used in the above Examples, and cultured in medium containing the above compounds during the time period between 48 and 120 hours ([…]) after induction of differentiation, as in the case of recombinant Wnt proteins.

cmES cells [4] = test: Marker gene expression in EBs from cmES cells (RT-PCR); format: cell-based, common marmoset; conditions: EBs at 10 days after induction; vs untreated group
Experimental: The EBs thus prepared were collected periodically, and total RNA was prepared with an RNeasy mini kit (Qiagen). cDNA was then synthesized with reverse transcriptase and analyzed by PCR to detect expression of common marmoset Wnt-3 gene (cmWnt-3) and β-actin (cmβActin) serving as an endogenous control. The primers used for detection are as shown below.
Moreover, for analysis of expressed genes, EBs were collected at 10 days after induction of differentiation to detect expression of various marker genes in the same manner as used in Example 5. The primers used for detection of common marmoset Nestin, ANP, MLC-2a and MLC-2v transcripts (hereinafter referred to as cmNestin, cmANP, cmMLC-2a and cmMLC-2v, respectively) are as shown below.

Substance: Wnt-3a
- effect on myocardial differentiation from ES cells (mouse ES cells [1]): promote myocardial differentiation from ES cells
- cells positive for sarcomeric myosin, GATA-4 and Nkx-2.5 (cmES cells [2]): the great majority of EB-constituting cells were found to be positive
- occurrence of beating EBs (mouse ES cells [3]; Wnt proteins added at 10 ng/mL to 50 ng/mL): very good occurrence of beating EBs
- appearance rate of beating EBs (mouse ES cells [3]; recombinant protein added at 1 ng/mL to 100 ng/mL): significantly higher than in the untreated group
- promoting effect on differentiation (mouse ES cells [3]; similar studies by the applicant, added for 3 days after initiation of induction (Example 2)): no significant promoting effect on differentiation
- expression of cardiomyocyte marker genes cmANP, cmMLC-2a and cmMLC-2v (cmES cells [4]): significantly stronger expression
